Measurements: paper PMC9370166, “In Vitro and In Vivo Antibacterial Activity, Toxicity and Resistance Analysis of Pleuromutilin Derivative Z33 against Methicillin-Resistant Staphylococcus aureus” (Molecules, 2022)
In brackets after ≈: the same amount, converted by molar mass. Where two headings read alike, the source gives them in different places.

How the values were obtained:
MRSA ATCC 43300 [1] = assay: MIC and MBC determination (broth microdilution); assay type: cell-based; details: Staphylococcus aureus; for MIC: first value of MIC/MBC cell; for MBC: second value of MIC/MBC cell
Procedure: (§1) The MIC values of Z33 against MRSA ATCC 43300 and S. aureus clinical isolates were measured according to the broth microdilution guidelines provided by the Clinical and Laboratory Standards Institute (CLSI). S. aureus ATCC 29213 was used as the quality control strain, and the quality control range was referred to the CLSI. The MIC value is defined as the lowest concentration of the compounds with no visible growth of bacteria. The MIC assay was independently repeated three times.
(§2) The MBC values of antibacterial agents were measured after incubation at 37 °C for 24 h. Briefly, 100 µL of bacterial solution from the three wells behind the corresponding well of MIC was absorbed and spread on the Mueller–Hinton Agar (MHA). The MBC refers to the lowest concentration corresponding to the amount of colony-forming unit (CFU) ≤ 5 on the medium after 18~24 h of incubation at 37 °C.

S. aureus ATCC 29213 [2] = assay: MIC and MBC determination (broth microdilution); assay type: cell-based; details: Staphylococcus aureus; for MIC: ATCC29213, first value of cell; for MBC: ATCC29213, second value of cell
Procedure: as §1, §2

[3] = test system: S. aureus clinical strain 144; assay: MIC and MBC determination (broth microdilution); assay type: cell-based; details: Staphylococcus aureus; for MIC: first value of cell; for MBC: second value of cell
Procedure: as §1, §2

[4] = test system: S. aureus clinical strain AD3; assay: MIC and MBC determination (broth microdilution); assay type: cell-based; details: Staphylococcus aureus; for MIC: first value of cell; for MBC: second value of cell
Procedure: as §1, §2

MRSA ATCC 43300 [5] = assay: Determination of MPC (mutant prevention concentration); assay type: cell-based, Staphylococcus aureus
Procedure: (§3) The drug-resistant tendency suppression potential of Z33 and tiamulin was determined as described with minor modifications. In the test, for each S. aureus strain, 4 mL of overnight cultures were inoculated into 100 mL of fresh BHI broth and then incubated for 4.5 h at 37 °C with shaking (210 rpm). Cultures were centrifuged at 5000 r/min for 10 min. The supernatant was discarded and resuspended in the 4 mL of saline to achieve a bacterial density of ~3 × 10^10 CFU/mL. In total, 100 μL of each culture was spread onto MHA containing various concentrations of Z33 and tiamulin. […] Plates were incubated at 37 °C for a total of 72 h and recorded every 24 h for the appearance of colonies. MPC was defined as the lowest concentration with no growth of colonies on the agar plate. MPC was carried out in triplicate.

S. aureus ATCC 29213 [6] = assay: as above; assay type: cell-based, Staphylococcus aureus
Procedure: as §3

[7] = test system: S. aureus clinical strain 144; assay: as above; assay type: cell-based, Staphylococcus aureus
Procedure: as §3

[8] = test system: S. aureus clinical strain AD3; assay: as above; assay type: cell-based, Staphylococcus aureus
Procedure: as §3

four S. aureus strains = assay: microbe, parasite or virus in culture; assay type: cell-based, Staphylococcus aureus
Procedure: To assess the propensity for the development of bacterial resistance, the ability of Z33 and tiamulin to induce resistance to four strains were tested, respectively. Serial passages at 37 °C were performed daily in BHI broth containing sub-MIC concentration (1/4 MIC) of Z33 and tiamulin. The MIC values were daily determined and recorded by the broth microdilution method. A duration of 13 passages was performed in every case.

CYP3A4 = biological target: T1, CYP3A4 (Homo sapiens, UniProt P08684); assay: CYP450 inhibition assay, human liver microsomes, testosterone probe; assay type: in vitro ADME
T1 construct: 40 µL of the human liver microsomal enzyme (final concentration is 0.5 g/L); tissue Research Institute for Liver Diseases Co., Ltd. (Shanghai, China); host or cells: human liver microsomes
Procedure: (§4) The inhibition effect of Z33 and tiamulin on the human liver microsomal enzyme was determined as described in the literature with some modifications. Experiments were performed in 96-well plates with a final incubation volume of 100 μL per well. 40 µL of the human liver microsomal enzyme (final concentration is 0.5 g/L), 20 µL of probe substrate (final concentration of testosterone and chlorzoxazone is 20 µmol/L), and 20 µL of test drug were mixed in each well. After preincubation at 37 °C for 5 min, the reactions were started by the addition of 20 μL of NADPH (final concentration is 1 mmol/L). Depending on the substrate, the chlorzoxazone and testosterone groups were incubated at 37 °C for 25 min and 10 min, respectively. The reaction was terminated by adding 100 µL of acetonitrile, and then the supernatant was centrifuged to analyse by LC-MS/MS.

CYP2E1 = biological target: T2, CYP2E1 (Homo sapiens, UniProt P05181); assay: CYP450 inhibition assay, human liver microsomes, chlorzoxazone probe; assay type: in vitro ADME; details: human liver microsomes
T2 construct: 40 µL of the human liver microsomal enzyme (final concentration is 0.5 g/L); tissue Research Institute for Liver Diseases Co., Ltd. (Shanghai, China); host or cells: human liver microsomes
Procedure: as §4

[9] = Cytotoxicity test (MTT assay); assay type: cell-based; details: mouse, RAW264.7 macrophages, RAW264.7, MTT, tested up to 20 μg/mL
Procedure: (§5) To assess the effects of tiamulin and Z33 on the viability of RAW264.7 macrophages, the MTT assay was performed according to previous reports. […] After discarding the MTT solution, DMSO (150 μL) was added to each well to dissolve all crystals. OD490nm was recorded using EnSight Multimode Plate Reader (PerkinElmer, […], USA).

RAW264.7 cells = assay: Cytotoxicity test (MTT assay); assay type: cell-based; details: concentrations less than 5 μg/mL, 24 h, MTT
Procedure: as §5

MRSA ATCC 43300 [10] = assay: Neutropenic mouse thigh infection model; assay type: in vivo, mice; details: 20 mg/kg intravenous
Procedure: The neutropenic mouse thigh infection model was used to determine the in vivo antibacterial activity of Z33 [23]. Briefly, female mice were rendered neutropenic (neutrophil count ≤ 100/mm^3) via intraperitoneal injection of cyclophosphamide on day 4 (150 mg/kg) and day 1 (100 mg/kg) before infection. MRSA ATCC 43300 cells were collected in the logarithmic phase and resuspended in 0.9% saline. The thigh infection model was established by injection of 100 μL of MRSA suspension (10^7 CFU/mL) into the posterior thighs of mice. After 2 h post-infection, mice were intravenously injected with tiamulin and Z33 at a dose of 20 mg/kg, and the untreated groups were administrated with an equal amount of saline. Mice were euthanized after treatment of 22 h, thigh tissue was aseptically collected, weighed, homogenized, and serially diluted in saline, respectively. CFU counts were determined by the flat colony counting method.

T2 sequence (P05181 whole entry): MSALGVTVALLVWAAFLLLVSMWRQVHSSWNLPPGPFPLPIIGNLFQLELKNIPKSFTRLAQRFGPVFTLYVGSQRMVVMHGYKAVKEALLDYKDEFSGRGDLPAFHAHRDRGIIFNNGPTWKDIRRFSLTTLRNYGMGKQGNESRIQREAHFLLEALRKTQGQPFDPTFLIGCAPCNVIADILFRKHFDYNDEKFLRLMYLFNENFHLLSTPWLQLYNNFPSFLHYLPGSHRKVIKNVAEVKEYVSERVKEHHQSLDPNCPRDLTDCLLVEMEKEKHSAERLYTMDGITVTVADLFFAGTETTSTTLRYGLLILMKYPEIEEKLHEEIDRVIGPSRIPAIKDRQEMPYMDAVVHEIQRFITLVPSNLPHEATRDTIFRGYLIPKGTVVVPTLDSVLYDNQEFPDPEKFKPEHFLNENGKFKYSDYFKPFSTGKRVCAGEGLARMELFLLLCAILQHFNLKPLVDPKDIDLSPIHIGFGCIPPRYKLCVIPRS
T1 sequence (P08684 whole entry): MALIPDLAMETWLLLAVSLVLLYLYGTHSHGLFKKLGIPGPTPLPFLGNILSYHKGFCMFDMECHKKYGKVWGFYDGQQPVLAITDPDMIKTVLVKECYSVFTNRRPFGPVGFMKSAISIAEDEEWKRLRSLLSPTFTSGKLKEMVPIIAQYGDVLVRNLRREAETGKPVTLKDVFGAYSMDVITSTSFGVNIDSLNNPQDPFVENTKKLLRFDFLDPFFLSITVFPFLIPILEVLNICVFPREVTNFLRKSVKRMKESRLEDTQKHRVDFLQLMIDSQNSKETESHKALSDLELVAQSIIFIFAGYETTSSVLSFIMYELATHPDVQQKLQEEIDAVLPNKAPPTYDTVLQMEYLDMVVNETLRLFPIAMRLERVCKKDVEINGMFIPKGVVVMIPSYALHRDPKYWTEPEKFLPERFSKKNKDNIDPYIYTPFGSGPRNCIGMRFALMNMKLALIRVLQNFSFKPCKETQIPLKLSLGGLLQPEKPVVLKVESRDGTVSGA

| SMILES | MIC (MRSA ATCC 43300 [1]) [µg/mL] | MBC (MRSA ATCC 43300 [1]) [µg/mL] | MIC (S. aureus ATCC 29213 [2]) [µg/mL] | MBC (S. aureus ATCC 29213 [2]) [µg/mL] | MIC [3] [µg/mL] | MBC [3] [µg/mL] | MIC [4] [µg/mL] | MBC [4] [µg/mL] | further results |
| --- | --- | --- | --- | --- | --- | --- | --- | --- | --- |
| C=C[C@]1(C)C[C@@H](OC(=O)CSCCN(CC)CC)[C@]2(C)[C@H](C)CC[C@]3(CCC(=O)[C@H]32)[C@@H](C)[C@@H]1O [tiamulin, reference compound] | 0.5 (≈ 1.01 µM) | 1 (≈ 2.03 µM) | 0.5 (≈ 1.01 µM) | 1 (≈ 2.03 µM) | 0.5 (≈ 1.01 µM) | 2 (≈ 4.05 µM) | 1 (≈ 2.03 µM) | 2 (≈ 4.05 µM) | MPC (MRSA ATCC 43300 [5]): 1 µg/mL; MPC (S. aureus ATCC 29213 [6]): 1 µg/mL; MPC [7]: 1 µg/mL; MPC [8]: 2 µg/mL; MIC (four S. aureus strains; Staphylococcus aureus, read-out: MICs of resistant clones): 2 to 8 µg/mL (≈ 4.05 to 16.2 µM); fold increase in MICs (four S. aureus strains; after 13 passages): ~32 fold; passages after which resistance developed (≥ 4-fold MIC increase) (four S. aureus strains; four S. aureus strains): 3 passages; IC50 (CYP3A4): 1600 nM; IC50 (CYP2E1; Figure 6, read-out: IC50 CYP2E1 (value in plot key)): 184 nM; IC50 (CYP2E1; bound given in text, read-out: IC50 CYP2E1): < 250 nM; IC50 at 24 h [9]: ≥ 20 µg/mL; cytotoxicity on RAW264.7 cells (RAW264.7 cells): No significant cytotoxicity; MRSA inoculum in the thigh muscle (MRSA ATCC 43300 [10]; after treatment for 24 h): 7.655 ± 0.067 log10 CFU/g; reduction of bacterial load in the thigh muscle (MRSA ATCC 43300 [10]; versus untreated group): 0.771 log10 CFU/g |
| C=C[C@]1(C)C[C@@H](OC(=O)CSC(C)(C)CNC(=O)[C@H](N)C(C)C)[C@]2(C)[C@H](C)CC[C@]3(CCC(=O)[C@H]32)[C@@H](C)[C@@H]1O [valnemulin] | 0.125 (≈ 0.221 µM) | 0.125 (≈ 0.221 µM) | 0.125 (≈ 0.221 µM) | 0.125 (≈ 0.221 µM) | 0.125 (≈ 0.221 µM) | 0.25 (≈ 0.443 µM) | 0.125 (≈ 0.221 µM) | 0.125 (≈ 0.221 µM) | – |
